The text below walks through data of ChEMBL document CHEMBL1949621, “Fluorocyclines. 1. 7-fluoro-9-pyrrolidinoacetamido-6-demethyl-6-deoxytetracycline: a potent, broad spectrum antibacterial agent” (J Med Chem, 2012).

≈ marks a conversion by molar mass, not a printed value. Where only a bound is given, the exact number is not on record here.

Holding throughout (type): functional
For assay [1], the system named is Klebsiella pneumoniae. Briefly: Antibacterial activity against Klebsiella pneumoniae ATCC 109 13883.
Assay [2] has as its system Enterococcus faecalis. Briefly: Antibacterial activity against Enterococcus faecalis ATCC 103 29212.
Assay [3] deals with Klebsiella pneumoniae. Briefly: Antibacterial activity against tetracycline-resistant Klebsiella pneumoniae 153.
In assay [4] the test system is Streptococcus pneumoniae. Briefly: Antibacterial activity against tetracycline-resistant Streptococcus pneumoniae 160.
For another assay, the system named is Enterobacter cloacae. Briefly: Antibacterial activity against Enterobacter cloacae ATCC 108 13047.
The test system of another assay is Pseudomonas aeruginosa. Briefly: Antibacterial activity against Pseudomonas aeruginosa ATCC 111 27853.
In assay [5] the test system is Streptococcus pneumoniae. Briefly: microbe, parasite or virus in culture. The conditions noted are these: ATCC 106 49619.
Description: Antibacterial activity against Streptococcus pneumoniae ATCC 106 49619
The subject of assay [6] is Staphylococcus aureus. The experiment in a line: microbe, parasite or virus in culture. The conditions noted are these: 158.
The test system of assay [7] is Escherichia coli. The experiment in a line: Antibacterial activity against Escherichia coli ATCC 107 25922.
The subject of assay [8] is Escherichia coli. Briefly: Antibacterial activity against tetracycline-resistant Escherichia coli 155.
The subject of assay [9] is Staphylococcus aureus. Briefly: Antibacterial activity against Staphylococcus aureus ATCC 101 29213.
Another assay has as its system Acinetobacter baumannii. The experiment in a line: Antibacterial activity against Acinetobacter baumannii ATCC 19606 110.
Assay [10] has as its system Enterococcus faecalis. The experiment in a line: Antibacterial activity against tetracycline-resistant Enterococcus faecalis 159.
The subject of assay [11] is Staphylococcus aureus. The experiment in a line: Antibacterial activity against tetracycline- and methicillin-resistant Staphylococcus aureus 161.

As to `CN(C)[C@@H]1C(O)=C(C(N)=O)C(=O)[C@@]2(O)C(O)=C3C(=O)c4c(O)c(NC(=O)CN5CCOCC5)cc(F)c4C[C@H]3C[C@@H]12`, the MIC against Klebsiella pneumoniae [1] was above 32 µg/mL; with Enterococcus faecalis [2] it was 8 µg/mL (≈ 13.9 µM); with Klebsiella pneumoniae [3], above 32 µg/mL; in the assay with Streptococcus pneumoniae [4], 1 µg/mL (≈ 1.74 µM); against Enterobacter cloacae it was above 32 µg/mL; in the assay on Pseudomonas aeruginosa, above 32 µg/mL. Further, the MIC with Streptococcus pneumoniae [5] was 0.5 µg/mL (≈ 0.87 µM); in the assay on Staphylococcus aureus [6], 8 µg/mL (≈ 13.9 µM); against Escherichia coli [7] it was above 32 µg/mL; against Escherichia coli [8], above 32 µg/mL; against Staphylococcus aureus [9] it was 4 µg/mL (≈ 6.96 µM); with Acinetobacter baumannii, 8 µg/mL (≈ 13.9 µM). Also, the MIC against Enterococcus faecalis [10] and in the assay on Staphylococcus aureus [11] was 8 µg/mL (≈ 13.9 µM) throughout.
For the compound `CN(C)[C@@H]1C(O)=C(C(N)=O)C(=O)[C@@]2(O)C(O)=C3C(=O)c4c(O)c(NC(=O)CNc5ccccc5)cc(F)c4C[C@H]3C[C@@H]12`, the MIC in the assay with Klebsiella pneumoniae [1] was above 32 µg/mL; against Enterococcus faecalis [2] it was 2 µg/mL (≈ 3.44 µM); in the assay on Klebsiella pneumoniae [3], above 32 µg/mL; in the assay on Streptococcus pneumoniae [4], above 4 µg/mL; with Enterobacter cloacae it was above 32 µg/mL; in the assay on Pseudomonas aeruginosa, above 32 µg/mL. Further, the MIC with Streptococcus pneumoniae [5] is 2 µg/mL (≈ 3.44 µM); against Staphylococcus aureus [6], 2 µg/mL (≈ 3.44 µM); with Escherichia coli [7], above 32 µg/mL; against Escherichia coli [8], above 32 µg/mL; in the assay on Staphylococcus aureus [9], 2 µg/mL (≈ 3.44 µM); against Acinetobacter baumannii it was above 8 µg/mL. The MIC against Enterococcus faecalis [10] amounted to 2 µg/mL (≈ 3.44 µM); with Staphylococcus aureus [11] it was 4 µg/mL (≈ 6.89 µM).
For `CC(C)NCC(=O)Nc1cc(F)c2c(c1O)C(=O)C1=C(O)[C@]3(O)C(=O)C(C(N)=O)=C(O)[C@@H](N(C)C)[C@@H]3C[C@@H]1C2`, the MIC amounted to 1 µg/mL (≈ 1.83 µM) against Klebsiella pneumoniae [1]; 0.0625 µg/mL (≈ 0.114 µM) against Enterococcus faecalis [2]; 4 µg/mL (≈ 7.32 µM) against Klebsiella pneumoniae [3]; 0.0156 µg/mL (≈ 0.0285 µM) against Streptococcus pneumoniae [4]; 1 µg/mL (≈ 1.83 µM) in the assay with Enterobacter cloacae; 16 µg/mL (≈ 29.3 µM) in the assay on Pseudomonas aeruginosa. The MIC worked out at 0.0156 µg/mL (≈ 0.0285 µM) in the assay with Streptococcus pneumoniae [5]; 0.5 µg/mL (≈ 0.915 µM) in the assay with Staphylococcus aureus [6]; 0.5 µg/mL (≈ 0.915 µM) with Escherichia coli [7]; 8 µg/mL (≈ 14.6 µM) against Escherichia coli [8]; 0.125 µg/mL (≈ 0.229 µM) with Staphylococcus aureus [9]; 1 µg/mL (≈ 1.83 µM) in the assay with Acinetobacter baumannii. Further, the MIC amounted to 0.0625 µg/mL (≈ 0.114 µM) in the assay with Enterococcus faecalis [10] and 0.25 µg/mL (≈ 0.457 µM) in the assay on Staphylococcus aureus [11].
In the case of `CN(C)[C@@H]1C(O)=C(C(N)=O)C(=O)[C@@]2(O)C(O)=C3C(=O)c4c(O)c(NC(=O)CN5CCC5)cc(F)c4C[C@H]3C[C@@H]12`, the MIC with Klebsiella pneumoniae [1] was found to be 1 µg/mL (≈ 1.84 µM); against Enterococcus faecalis [2] it was 0.0625 µg/mL (≈ 0.115 µM); with Klebsiella pneumoniae [3] it was 4 µg/mL (≈ 7.35 µM); in the assay with Streptococcus pneumoniae [4] it was 0.0156 µg/mL (≈ 0.0286 µM); against Enterobacter cloacae, 1 µg/mL (≈ 1.84 µM); in the assay with Pseudomonas aeruginosa, 8 µg/mL (≈ 14.7 µM). The MIC in the assay on Streptococcus pneumoniae [5] was 0.0156 µg/mL (≈ 0.0286 µM); in the assay on Staphylococcus aureus [6], 0.5 µg/mL (≈ 0.918 µM); in the assay on Escherichia coli [7], 0.25 µg/mL (≈ 0.459 µM); in the assay on Escherichia coli [8], 8 µg/mL (≈ 14.7 µM); against Staphylococcus aureus [9], 0.125 µg/mL (≈ 0.23 µM); in the assay on Acinetobacter baumannii it was 2 µg/mL (≈ 3.67 µM). Further, the values for the MIC in the assay with Enterococcus faecalis [10] and in the assay with Staphylococcus aureus [11] were 0.125 µg/mL (≈ 0.23 µM) and 0.25 µg/mL (≈ 0.459 µM), respectively.
`CN(C)[C@@H]1C(O)=C(C(N)=O)C(=O)[C@@]2(O)C(O)=C3C(=O)c4c(O)c(NC(=O)CN5CC6CCCC6C5)cc(F)c4C[C@H]3C[C@@H]12` (stereo partly drawn): the MIC with Klebsiella pneumoniae [1] was 2 µg/mL (≈ 3.34 µM); with Enterococcus faecalis [2] it was 0.25 µg/mL (≈ 0.418 µM); in the assay on Klebsiella pneumoniae [3] it was 4 µg/mL (≈ 6.68 µM); in the assay with Streptococcus pneumoniae [4], 0.06 µg/mL (≈ 0.1 µM); with Enterobacter cloacae, 4 µg/mL (≈ 6.68 µM); against Pseudomonas aeruginosa it was above 32 µg/mL. Moreover, the MIC in the assay on Streptococcus pneumoniae [5] came out at 0.125 µg/mL (≈ 0.209 µM); against Staphylococcus aureus [6], 0.5 µg/mL (≈ 0.835 µM); in the assay on Escherichia coli [7] it was 1 µg/mL (≈ 1.67 µM); in the assay with Escherichia coli [8] it was 2 µg/mL (≈ 3.34 µM); in the assay with Staphylococcus aureus [9] it was 0.5 µg/mL (≈ 0.835 µM); in the assay on Acinetobacter baumannii it was 0.06 µg/mL (≈ 0.1 µM). The figures for the MIC against Enterococcus faecalis [10] and against Staphylococcus aureus [11] were 0.5 µg/mL (≈ 0.835 µM) and 1 µg/mL (≈ 1.67 µM), respectively.
As to `CCNCC(=O)Nc1cc(F)c2c(c1O)C(=O)C1=C(O)[C@]3(O)C(=O)C(C(N)=O)=C(O)[C@@H](N(C)C)[C@@H]3C[C@@H]1C2`, the MIC with Klebsiella pneumoniae [1] is 1 µg/mL (≈ 1.88 µM); with Enterococcus faecalis [2], 0.0625 µg/mL (≈ 0.117 µM); in the assay with Klebsiella pneumoniae [3], 8 µg/mL (≈ 15 µM); in the assay on Streptococcus pneumoniae [4], 0.0156 µg/mL (≈ 0.0293 µM); against Enterobacter cloacae, 0.5 µg/mL (≈ 0.939 µM); with Pseudomonas aeruginosa, 8 µg/mL (≈ 15 µM). Moreover, the MIC with Streptococcus pneumoniae [5] was found to be 0.0156 µg/mL (≈ 0.0293 µM); with Staphylococcus aureus [6], 1 µg/mL (≈ 1.88 µM); against Escherichia coli [7], 0.25 µg/mL (≈ 0.469 µM); with Escherichia coli [8], 16 µg/mL (≈ 30 µM); against Staphylococcus aureus [9], 0.0625 µg/mL (≈ 0.117 µM); against Acinetobacter baumannii, 2 µg/mL (≈ 3.76 µM). In addition, the values for the MIC against Enterococcus faecalis [10] and against Staphylococcus aureus [11] were 0.125 µg/mL (≈ 0.235 µM) and 0.25 µg/mL (≈ 0.469 µM), respectively.
Consider `COC[C@@H]1CCCN1CC(=O)Nc1cc(F)c2c(c1O)C(=O)C1=C(O)[C@]3(O)C(=O)C(C(N)=O)=C(O)[C@@H](N(C)C)[C@@H]3C[C@@H]1C2`, for which the MIC in the assay on Klebsiella pneumoniae [1] is 8 µg/mL (≈ 13.3 µM); in the assay on Enterococcus faecalis [2] it was 1 µg/mL (≈ 1.66 µM); in the assay with Klebsiella pneumoniae [3] it was 16 µg/mL (≈ 26.6 µM); against Streptococcus pneumoniae [4], 0.125 µg/mL (≈ 0.207 µM); against Enterobacter cloacae, 16 µg/mL (≈ 26.6 µM); against Pseudomonas aeruginosa it was above 32 µg/mL. The MIC in the assay on Streptococcus pneumoniae [5] was 0.125 µg/mL (≈ 0.207 µM); in the assay with Staphylococcus aureus [6], 1 µg/mL (≈ 1.66 µM); in the assay on Escherichia coli [7], 4 µg/mL (≈ 6.64 µM); against Escherichia coli [8], 16 µg/mL (≈ 26.6 µM); against Staphylococcus aureus [9], 1 µg/mL (≈ 1.66 µM); in the assay with Acinetobacter baumannii, 0.5 µg/mL (≈ 0.83 µM). Further, the MIC with Enterococcus faecalis [10] and with Staphylococcus aureus [11] was 2 µg/mL (≈ 3.32 µM) each time.
